Data as given in US12459908B2, “Alpha, beta unsaturated methacrylic esters with anti-inflammatory properties” (Sitryx Therapeutics Limited, priority 2020, dated 2025).
Where a name gives a salt, the structure may show the parent alone.

Assays:
IL-1β = assay: THP-1 AlphaLISA IL-1β cytokine inhibition assay (differentiated THP-1 cells); assay type: cell-based; details: Homo sapiens, LPS 24 hr then Nigericin 1 hour, class symbols
Procedure: Biological Example 1—THP-1 AlphaLISA IL-1β
Measuring Inhibitory Effects on IL-1, Cytokine Output from THP-1s
(§1) The cytokine inhibition profiles of compounds of formula (I) were determined in a differentiated THP-1 cell assay. All assays were performed in RPMI-1640 growth medium (Gibco), supplemented with 10% fetal bovine serum (FBS; Gibco), 1% penicillin-streptomycin and 1% sodium pyruvate unless specified otherwise. The IL-1p cytokine inhibition assay was run in a background of differentiated THP-1 cells as described below. All reagents described were from Sigma-Aldrich unless specified otherwise. Compounds were prepared as 10 mM DMSO stocks.
(§2) THP-1 cells were expanded as a suspension up to 80% confluence in appropriate growth medium. Cells were harvested, suspended, and treated with an appropriate concentration of phorbol 12-myristate 13-acetate (PMA) over a 72 hr period (37° C./5% CO2).
(§3) Following 72 hrs of THP-1 cell incubation, cellular medium was removed and replaced with fresh growth media containing 1% of FBS. Working concentrations of compounds were prepared separately in 10% FBS treated growth medium and pre-incubated with the cells for 30 minutes (37° C./5% CO2). Following the 30 minute compound pre-incubation, THP-1s were treated with an appropriate concentration of LPS and the cells were subsequently incubated for a 24 hr period (37° C./5% CO2). An appropriate final concentration of Nigericin was then dispensed into the THP-1 plates and incubated for 1 hour (37° C./5% CO2) before THP-1 supernatants were harvested and collected in separate polypropylene 96-well holding plates.
(§4) Reagents from an IL-1β and IL-6 commercial kit (Perkin Elmer) were prepared and run according to the manufacturer's instructions. Subsequently, fluorescence signal detection in a microplate reader was measured (EnVision® Multilabel Reader, Perkin Elmer).
(§5) Percentage inhibition was calculated per cytokine by normalising the sample data to the high and low controls used within each plate (+/−LPS respectively). Percentage inhibition was then plotted against compound concentration and the 50% inhibitory concentration (IC50) was determined from the resultant concentration-response curve.

NRF2 = NRF2 activation assay (DiscoverX PathHunter NRF2 translocation kit, U2OS cells); assay type: cell-based; details: Homo sapiens, 6 hours; for Emax: normalised to DMF high control
Procedure: Biological Example 2—NRF2 Activation Assay
Measuring Compound Activation Effects on the Anti-Inflammatory Transcription Factor NRF2 in DiscoverX PathHunter NRF2 Translocation Kit
Potency and efficacy of compounds of formula (I) against the target of interest to activate NRF2 (nuclear factor erythroid 2-related factor 2) were determined using the PathHunter NRF2 translocation kit (DiscoverX). The NRF2 translocation assay was run using an engineered recombinant cell line, utilising enzyme fragment complementation to determine activation of the Keap1-NRF2 protein complex and subsequent translocation of NRF2 into the nucleus. Enzyme activity was quantified using a chemiluminescent substrate consumed following the formation of a functional enzyme upon PK-tagged NRF2 translocation into the nucleus.
Additionally, a defined concentration of DMF was used as the ‘High’ control to normalise test compound activation responses to.
U2OS PathHunter eXpress cells were thawed from frozen prior to plating. Following plating, U2OS cells were incubated for 24 hrs (37° C./5% CO2) in commercial kit provided cell medium.
Following 24 hrs of incubation, plated U2OS cells were directly treated with an appropriate final concentration of compound. […]
Following compound treatment, the U2OS plates were incubated for a further 6 hours (37° C./5% CO2) before detection reagent from the PathHunter NRF2 commercial kit was prepared and added to test plates according to the manufacturer's instructions. Subsequently, the luminescence signal detection was measured in a microplate reader (PHERAstar®, BMG Labtech).
Percentage activation was calculated by normalising the sample data to the high and low controls used within each plate (+/−DMF). Percentage activation/response was then plotted against compound concentration and the 50% activation concentration ([…]) was determined from the plotted concentration-response curve.

IL-6 = assay: THP-1 AlphaLISA IL-6 cytokine inhibition assay (differentiated THP-1 cells); assay type: cell-based; details: Homo sapiens, LPS 24 hr then Nigericin 1 hour, class symbols
Procedure: as §1, §2, §3, §4, §5

[1] = Hepatocyte stability assay, human cryopreserved hepatocytes; assay type: in vitro ADME; details: cryopreserved hepatocytes; Human hepatocytes, 10 μM, 60 min; class symbols; read-out: T½
Source text: (§6) Biological Example 3—Hepatocyte Stability Assay
(§7) Defrosted cryo-preserved hepatocytes (viability >70%) were used to determine the metabolic stability of a compound via calculation of intrinsic clearance (CIint; a measure of the removal of a compound from the liver in the absence of blood flow and cell binding). Clearance data are particularly important for in vitro work as they can be used in combination with in vivo data to predict the half-life and oral bioavailability of a drug.
(§8) The metabolic stability in hepatocytes assay involves a time-dependent reaction using both positive and negative controls. The cells were pre-incubated at 37° C. and spiked with test compound (and positive control); samples taken at pre-determined time intervals were analysed to monitor the change in concentration of the initial drug compound over 60 minutes. A buffer incubation reaction (with no hepatocytes present) acted as a negative control and two cocktail solutions, containing compounds with known high and low clearance values (verapamil/7-hydroxycoumarin and propranolol/diltiazem), acted as positive controls. • 1. The assay was run with a cell concentration of 0.5×10^6 cells/mL in Leibovitz buffer. • 2. All compounds and controls were run in duplicate. • 3. Compound concentration was 10 μM. • 4. All compounds and controls were incubated with both cells and buffer to show turnover was due to hepatic metabolism. • 5. All wells on the incubation plate had 326.7 μL of either cells or buffer added. • 6. Prior to assay, cell and buffer-only incubation plates were preincubated for 10 mins at 37° C. • 7. The assay was initiated by adding compounds, 3.3 μL of 1 mM in 10% DMSO-90% Buffer; final DMSO concentration is 0.1%. • 8. Samples were taken at regular timepoints (0, 5, 10, 20, 40, 60 min) until 60 mins. • 9. Sample volume was 40 μL and was added to 160 μL of crash solvent (acetonitrile with internal standard) and stored on ice. • 10. At the end of the assay, the crash plates were centrifuged at 3500 rpm for 20 mins at 4° C. • 11. 80 μL of clear supernatant was removed and mixed with 80 μL of deionised water before being analysed by LC-MS/MS.
(§9) Raw LC-MS/MS data was exported to, and analysed in, Microsoft Excel for determination of intrinsic clearance. The percentage remaining of a compound was monitored using the peak area of the initial concentration as 100%. Intrinsic clearance and half-life values were calculated using a graph of the natural log of percentage remaining versus the time of reaction in minutes. Half-life (min) and intrinsic clearance (CIint in μL min^−1 10^−6 cells) values were calculated using the gradient of the graph (the elimination rate constant, k) and Equations 1 and 2.

[2] = test system: cryo-preserved hepatocytes; assay: Hepatocyte stability assay, mouse cryopreserved hepatocytes; assay type: in vitro ADME; details: Mouse hepatocytes, 10 μM, 60 min; class symbols
Source text: as §6, §7, §8, §9

[3] = as above; assay type: in vitro ADME; details: cryopreserved hepatocytes; Mouse hepatocytes, 10 μM, 60 min; class symbols; read-out: T½
Source text: as §6, §7, §8, §9

SMILES	IC50 (IL-1β) [µM]	EC50 (NRF2; class symbols) [µM]	Emax (NRF2; class symbols) [%]	IC50 (IL-6) [µM]	half-life at 10 μM [1] [min]	Clint [2]	half-life at 10 μM [3] [min]	Emax (NRF2; numeric values) [%]	EC50 (NRF2; numeric values) [µM]
C=C(Cc1nc(CCCCC)no1)C(=O)OCC(=O)O [Example 21, 2-((2-((3-pentyl-1,2,4-oxadiazol-5-yl)methyl)acryloyl)oxy)acetic acid]	21 to 24	11 to 21	166 to 250	11 to 20	–	–	–	–	–
C=C(Cc1nc(Cc2ccc(CCCC)cc2)no1)C(=O)OCCc1nnn[nH]1 [Example 14, 2-(1H-tetrazol-5-yl)ethyl 2-((3-(4-butylbenzyl)-1,2,4-oxadiazol-5-yl)methyl)acrylate]	< 5	< 5	135 to 165	< 5	5 to 59	+ (+ means ≥351)	≤ 4	–	–
C=C(Cc1nc(CCCCCCCC)no1)C(=O)OCC(=O)O [Example 1, 2-((2-((3-octyl-1,2,4-oxadiazol-5-yl)methyl)acryloyl)oxy)acetic acid]	< 5	< 5	135 to 165	< 5	5 to 59	+ (+ means ≥351)	≤ 4	–	–
C=C(Cc1nc(Cc2ccc(CCCCC)cc2)no1)C(=O)O[C@H](CC(=O)O)C(F)(F)F [Example 11, (R)-4,4,4-trifluoro-3-((2-((3-(4-pentylbenzyl)-1,2,4-oxadiazol-5-yl)methyl)acryloyl)oxy)butanoic acid]	< 5	< 5	101 to 134	< 5	–	–	–	–	–
C=C(Cc1nc(Cc2ccc(CCCC)cc2)no1)C(=O)OCc1nnn[nH]1 [Example 16, (1H-tetrazol-5-yl)methyl 2-((3-(4-butylbenzyl)-1,2,4-oxadiazol-5-yl)methyl)acrylate]	< 5	< 5	135 to 165	< 5	5 to 59	+ (+ means ≥351)	≤ 4	–	–
C=C(Cc1nc(C2(c3ccc(SC(F)(F)F)cc3)CC2)no1)C(=O)OCC(=O)O [Example 22, 2-((2-((3-(1-(4-((trifluoromethyl)thio)phenyl)cyclopropyl)-1,2,4-oxadiazol-5-yl)methyl)acryloyl)oxy)acetic acid]	< 5	< 5	135 to 165	< 5	5 to 59	+ (+ means ≥351)	≤ 4	–	–
C=C(Cc1nc(Cc2ccc(CCCC)cc2)no1)C(=O)O[C@H](CC(=O)O)C(F)(F)F [Example 9, (R)-3-((2-((3-(4-butylbenzyl)-1,2,4-oxadiazol-5-yl)methyl)acryloyl)oxy)-4,4,4-trifluorobutanoic acid]	< 5	< 5	101 to 134	< 5	–	–	–	–	–
C=C(Cc1nc(Cc2ccc(CCCCC)cc2)no1)C(=O)O[C@@H](CC(=O)O)C(F)(F)F [Example 12, (S)-4,4,4-trifluoro-3-((2-((3-(4-pentylbenzyl)-1,2,4-oxadiazol-5-yl)methyl)acryloyl)oxy)butanoic acid]	< 5	< 5	166 to 250	< 5	–	–	–	–	–
C=C(Cc1nc(CCCCCCCC)no1)C(=O)OCCC(=O)O [Example 2]	< 5	< 5	135 to 165	–	5 to 59	+ (+ means ≥351)	≤ 4	–	–
C=C(Cc1nc(C2(c3ccc(C(F)(F)F)cc3)CC2)no1)C(=O)O[C@@H](CC(=O)O)C(F)(F)F [Example 8, (S)-4,4,4-trifluoro-3-((2-((3-(1-(4-(trifluoromethyl)phenyl)cyclopropyl)-1,2,4-oxadiazol-5-yl)methyl)acryloyl)oxy)butanoic acid]	< 5	< 5	135 to 165	< 5	5 to 59	+ (+ means ≥351)	≤ 4	–	–
C=C(Cc1nc(C2(c3ccc(C(F)(F)F)cc3)CC2)no1)C(=O)OCC(=O)O [Example 4, 2-((2-((3-(1-(4-(trifluoromethyl)phenyl)cyclopropyl)-1,2,4-oxadiazol-5-yl)methyl)acryloyl)oxy)acetic acid]	< 5	5 to 10	135 to 165	5 to 10	60 to 100	++ (++ means 95-350)	5 to 11	–	–
C=C(Cc1nc(Cc2ccc(OC(F)(F)F)cc2)no1)C(=O)OCC(=O)O [Example 20, 2-((2-((3-(4-(trifluoromethoxy)benzyl)-1,2,4-oxadiazol-5-yl)methyl)acryloyl)oxy)acetic acid]	5 to 10	–	–	< 5	> 100	++ (++ means 95-350)	5 to 11	–	–
C=C(Cc1nc(CCCCCCCC)no1)C(=O)OC(C(F)(F)F)C(C)(C)C(=O)O (stereo not drawn) [Example 17, 4,4,4-trifluoro-2,2-dimethyl-3-((2-((3-octyl-1,2,4-oxadiazol-5-yl)methyl)acryloyl)oxy)butanoic acid]	< 5	–	–	< 5	5 to 59	+ (+ means ≥351)	≤ 4	–	–
COC(=O)/C=C/C(=O)OC [dimethyl fumarate, reference compound]	–	–	–	–	–	–	–	100	6.1
C=C(Cc1nc(Cc2ccc(CCCC)cc2)no1)C(=O)OCCC(=O)O [Example 15, 3-((2-((3-(4-butylbenzyl)-1,2,4-oxadiazol-5-yl)methyl)acryloyl)oxy)propanoic acid]	< 5	–	–	< 5	5 to 59	+ (+ means ≥351)	≤ 4	–	–
